Where “and” joins values, the source holds several entries; their conditions need not be identical. Equal values may be shown once. After the bases stand the sugars from the 5' end (letter, count) and the backbone: PS all phosphorothioate, else s phosphorothioate and o phosphodiester by linkage. Methylation of C is not given here. e = 2'-O-(2-methoxyethyl) (MOE); k = constrained ethyl (cEt); d = 2'-deoxy (DNA)

Among the data in the OligoGym collection are target mRNA inhibition values, retold here.

The target in series [1] is IRF5. The note with it: ASO.
Series [2] addresses DGAT2. The following applies: ASO.

The sequence ATTCCAATTTTGCATT (sugars k3 d10 k3, PS) gave a target mRNA inhibition in series [1] (KARPAS-229, 4 µM) of 21%.

On to GAGACGAGCAAAGGGT (sugars k3 d10 k3, PS), for which, in series [1] (KARPAS-229, 4 µM), the target mRNA inhibition was 40%. The same measure, in the same setting: with “GGTGTATTTCCCTGTC (sugars k3 d9 k3 e1, PS)” the figure was 0%; with “GTTATCTCCGTCCTGG (sugars kekdddddddddeekk, PS)”, 13%. On to CCAATTTTGCATTCCA (sugars k3 d10 k3, PS), for which the target mRNA inhibition in series [1] (KARPAS-229, 0.44444 µM) is 51%; in series [1] (KARPAS-229, 1.33333 µM), 74%; in series [1] (KARPAS-229, 4 µM), 78% and 83%; in series [1] (KARPAS-229, 12 µM) it was 89%.

Sequence “CTTCTGCAGGGAGTCA (sugars kkdddddddddkdkdk, PS)” gave a target mRNA inhibition in series [1] (KARPAS-229, 4 µM) of 0%. In the case of GTGAGACGAGCAAAGG (sugars k3 d10 k3, PS), the target mRNA inhibition was 60% in series [1] (KARPAS-229, 0.44444 µM); 49% in series [1] (KARPAS-229, 1.33333 µM); 49% and 74% in series [1] (KARPAS-229, 4 µM); 77% in series [1] (KARPAS-229, 12 µM).

The sequence “GGTCTTTGAGGTCTGG (sugars k2 d8 e4 k2, PS)” came in with a target mRNA inhibition in series [1] (KARPAS-229, 4 µM) of 56%.

Regarding “ATCACCACTGTGTACC (sugars kkddddddddkekekk, PS)”, the target mRNA inhibition in series [1] (KARPAS-229, 4 µM) was determined as 0%.

In turn, “ATGAGTCATGGGCTGA (sugars kkddddddddddkeke, PS)” yielded a target mRNA inhibition in series [1] (KARPAS-229, 4 µM) of 0%. On the same count and under the same terms, with GAGTAATAGGAGTGAG (sugars k3 d10 k3, PS) the figure was 33%; with “ACCACTGTGTACCCCA (sugars kkkddddddddkekek, PS)”, 6%.

Take “CAGGTTCTTGGACTCT (sugars kkkddddddddkekek, PS)”: in series [1] (KARPAS-229, 4 µM), the target mRNA inhibition was determined as 0%. In the case of “CACATCTCCACATCAG (sugars kddddddddddkekek, PS)”, the target mRNA inhibition in series [1] (KARPAS-229, 4 µM) came to 15%. Same read-out and setting: with “GTGAGTCTCAAACCAG (sugars kdddddddddkekeke, PS)” the figure was 0%.

Turning to “GTTCTTGGACTCTCAA (sugars kkddddddddddkeke, PS)”, the target mRNA inhibition in series [1] (KARPAS-229, 4 µM) turned out to be 27%. On to “CCAATTTTGCATTCCA (sugars k2 d8 e4 k2, PS)”, for which the target mRNA inhibition in series [1] (KARPAS-229, 4 µM) is 48%. The sequence “GGTCTTTGAGGTCTGG (sugars kkddddddddkekekk, PS)” registered a target mRNA inhibition in series [1] (KARPAS-229, 4 µM) of 52%. Same read-out and setting: with “GGAGTGAGACGAGCAA (sugars kkdddddddddkekek, PS)” the figure was 27%; with “GCTTGGTCTTGACCTC (sugars kddddddddddkekek, PS)”, 18%. Sequence “GGTTCTTGGACTCTCA (sugars kkdddddddddkekek, PS)” showed a target mRNA inhibition in series [1] (KARPAS-229, 4 µM) of 0%. Consider “CACATCTCCACATCAG (sugars kkdddddddddkekek, PS)”, for which the target mRNA inhibition in series [1] (KARPAS-229, 4 µM) was determined as 22%.

Consider “CTGATATGATACCTAA (sugars k3 d1 k1 d8 k3, PS)”, for which the target mRNA inhibition came to 20% in series [1] (A-431, 0.00412 µM); 29% in series [1] (A-431, 0.01225 µM); 38% in series [1] (A-431, 0.03704 µM); 64% in series [1] (A-431, 0.11111 µM); 83% in series [1] (A-431, 0.33333 µM); 83% in series [1] (A-431, 1 µM). Sequence “CTGACACAGGCGGATG (sugars kkddddddddkekekk, PS)” registered a target mRNA inhibition in series [1] (KARPAS-229, 4 µM) of 0%.

In series [1] (KARPAS-229, 4 µM), “GAGTCATGGGCTGAGG (sugars kddddddddddkekek, PS)” registered a target mRNA inhibition of 0%. Consider GAGCAAAGGGTGAGTA (sugars k3 d10 k3, PS), for which the target mRNA inhibition in series [1] (KARPAS-229, 4 µM) is 0%. With “CTTGGTCTTGACCTCC (sugars k2 d8 e4 k2, PS)”, in series [1] (KARPAS-229, 4 µM), the target mRNA inhibition was found to be 20%.

With “GAGTCTCAAACCAGGG (sugars kdddddddddkekeke, PS)”, the target mRNA inhibition in series [1] (KARPAS-229, 4 µM) turned out to be 6%. The sequence “TCACCACTGTGTACCC (sugars kkdddddddddkekek, PS)” had a target mRNA inhibition in series [1] (KARPAS-229, 4 µM) of 0%. Still for that read-out and setting: with “ACTGACACAGGCGGAT (sugars kkdddddddddkdkdk, PS)” the figure was 6%; with “AGGTTCTTGGACTCTC (sugars k2 d8 e4 k2, PS)”, 17%; with “GTGTATTTCCCTGTCT (sugars k2 d8 e4 k2, PS)”, 0%. On the same count and under the same terms, with “AGGAAGTGAGTCTCAA (sugars kkdddddddddkekek, PS)” the figure was 42%; with “TTGTCTAGTGTCATGG (sugars kdddddddddkekeke, PS)”, 8%; with “GGTCTTTGAGGTCTGG (sugars k3 d9 k3 e1, PS)”, 33%.

Consider “ATGAGTCATGGGCTGA (sugars k3 d9 k3 e1, PS)”, for which, in series [1] (KARPAS-229, 4 µM), the target mRNA inhibition was 20%. In series [1] (KARPAS-229, 4 µM), “ATGAGTCATGGGCTGA (sugars kkdddddddddkekek, PS)” yielded a target mRNA inhibition of 0%. The same measure, in the same setting: with “AGGTTCTTGGACTCTC (sugars kddddddddddkekek, PS)” the figure was 34%; with “TGCACTGACACAGGCG (sugars kkddddddddddkeke, PS)”, 16%. Sequence “CCACTGTGTACCCCAT (sugars kkddddddddkekekk, PS)” had a target mRNA inhibition in series [1] (KARPAS-229, 4 µM) of 0%. Still for that read-out and setting: with “GAGTCATGGGCTGAGG (sugars kkdddddddddkdkdk, PS)” the figure was 31%. Regarding “GTTATCTCCGTCCTGG (sugars kkddddddddkekekk, PS)”, the target mRNA inhibition in series [1] (KARPAS-229, 4 µM) is 0%. In the case of “CACCACTGTGTACCCC (sugars kdddddddddkekeke, PS)”, the target mRNA inhibition in series [1] (KARPAS-229, 4 µM) was 0%. “AGCTTGGTCTTGACCT (sugars kekdddddddddeekk, PS)” showed a target mRNA inhibition in series [1] (KARPAS-229, 4 µM) of 38%. Still for that read-out and setting: with “ACATCTCCACATCAGT (sugars kkddddddddkekekk, PS)” the figure was 15%; with “AAGGGCACAGCGCAGG (sugars kkkddddddddkdkdk, PS)”, 12%. As to “CAATTTTGCATTCCAT (sugars kkddddddddkekekk, PS)”, in series [1] (KARPAS-229, 4 µM), the target mRNA inhibition is 32%. The same measure, in the same setting: with “GGGCACAGCGCAGGTT (sugars kdddddddddkekeke, PS)” the figure was 33%; with “TGTCTAGTGTCATGGA (sugars k3 d9 k3 e1, PS)”, 39%. In the case of TGAGTCATGGGCTGAG (sugars k3 d10 k3, PS), the target mRNA inhibition in series [1] (KARPAS-229, 4 µM) was determined as 0%.

Take “CAGCAGTCTGCCTGATTCCC (sugars e5 d10 e5, PS)”: the target mRNA inhibition is 66% in series [2] (HepG2, 2.5 µM) and 94% in series [2] (HepG2, 10 µM).

Sequence “GACTCAGTGTCCTCCTTAGC (sugars e5 d10 e5, PS)” gave a target mRNA inhibition in series [2] (HepG2, 10 µM) of 73%. Turning to “ACAATTCCTGGATAACAAGG (sugars e5 d10 e5, PS)”, the target mRNA inhibition in series [2] (HepG2, 0.12 µM) was determined as 41%. As for “GGAGTTTGTGTTTCCCATTT (sugars e5 d10 e5, PS)”, the target mRNA inhibition in series [2] (HepG2, 2.5 µM) was 81% and 72%; in series [2] (HepG2, 10 µM) it was 91% and 84%. The sequence “CAGGAAGGCACAGAAAAGTG (sugars e5 d10 e5, PS)” yielded a target mRNA inhibition in series [2] (HepG2, 0.12 µM) of 28%.

For “ACTTCATTCTCTCCAAAGGA (sugars e5 d10 e5, PS)”, the target mRNA inhibition in series [2] (HepG2, 0.12 µM) worked out at 45%. The sequence “ATTAGCAGTAGCTCAGGAGA (sugars e5 d10 e5, PS)” displayed a target mRNA inhibition in series [2] (HepG2, 0.12 µM) of 48%.

In series [2] (HepG2, 0.12 µM), “GCCAGGTAAGGCCGTATGCC (sugars e5 d10 e5, PS)” gave a target mRNA inhibition of 68%. In series [2] (HepG2, 0.12 µM), “CAGCCAAGTGAAGTAGAGCA (sugars e5 d10 e5, PS)” returned a target mRNA inhibition of 41%.

For the sequence “GTTCCAGTCAAACACCAGCC (sugars e5 d10 e5, PS)”, in series [2] (HepG2, 0.12 µM), the target mRNA inhibition came to 31%. For the sequence “TAGGGCACCAGCCCCCAGGT (sugars e5 d10 e5, PS)”, the target mRNA inhibition in series [2] (HepG2, 0.12 µM) was 32%.

On to “GCACCATAATCTGCACAGGT (sugars e5 d10 e5, PS)”, for which the target mRNA inhibition in series [2] (HepG2, 2.5 µM) was 88% and 86%; in series [2] (HepG2, 10 µM), 93% and 89% and 92%. “CAATGGGAATGGTATCGCAC (sugars e5 d10 e5, PS)”: the target mRNA inhibition was 68% and 62% in series [2] (HepG2, 2.5 µM); 93% and 85% in series [2] (HepG2, 10 µM). For “CCACAGGGCCCTTTCCAGAA (sugars e5 d10 e5, PS)”, the target mRNA inhibition in series [2] (HepG2, 2.5 µM) is 58% and 53%; in series [2] (HepG2, 10 µM), 87% and 85%. In series [2] (HepG2, 0.12 µM), “ATTGCCACTCCCATTCTTTG (sugars e3 d14 e3, PS)” returned a target mRNA inhibition of 40%. For the sequence “TGCCCTTGCTGTAGGACCCA (sugars e5 d10 e5, PS)”, the target mRNA inhibition in series [2] (HepG2, 2.5 µM) is 92% and 79%; in series [2] (HepG2, 10 µM), 88% and 95%. In the case of “AGGACAGGGCAGACACACCT (sugars e5 d10 e5, PS)”, the target mRNA inhibition in series [2] (HepG2, 0.12 µM) was 44%.

As for “TGGACAAGTCATCTTCCAGC (sugars e5 d10 e5, PS)”, the target mRNA inhibition in series [2] (HepG2, 2.5 µM) came to 52%; in series [2] (HepG2, 10 µM) it was 74%.

As to “CTGCCACCTTCCAGGGAATA (sugars e5 d10 e5, PS)”, the target mRNA inhibition in series [2] (HepG2, 0.12 µM) stood at 27%. On to “GCTTGTACACTTCATTCTCT (sugars e5 d10 e5, PS)”, for which the target mRNA inhibition in series [2] (HepG2, 2.5 µM) came out at 42%; in series [2] (HepG2, 10 µM), 85%. Take “CAGGACCCACTGGAGCACTG (sugars e5 d10 e5, PS)”: the target mRNA inhibition in series [2] (HepG2, 0.12 µM) worked out at 80%; in series [2] (HepG2, 20 µM) it was 83%. As to “TAAAGAGGCTGGGCCATAGA (sugars e5 d10 e5, PS)”, the target mRNA inhibition in series [2] (HepG2, 0.12 µM) turned out to be 21%.

Regarding “GCCTGGACAAGTCCTGCCCA (sugars e3 d14 e3, PS)”, the target mRNA inhibition in series [2] (HepG2, 0.12 µM) is 84%; in series [2] (HepG2, 2.5 µM), 45% and 42%; in series [2] (HepG2, 10 µM) it was 89%; in series [2] (HepG2, 20 µM) it was 48%.

In the case of “GCCTGGACAAGTCCTGCCCA (sugars e2 d13 e5, PS)”, the target mRNA inhibition was 78% in series [2] (HepG2, 0.12 µM); 44% and 45% in series [2] (HepG2, 2.5 µM); 87% in series [2] (HepG2, 10 µM); 55% in series [2] (HepG2, 20 µM).

In the case of “GGGAAGGATACCGCCAATGA (sugars e5 d10 e5, PS)”, the target mRNA inhibition in series [2] (HepG2, 0.12 µM) is 57%. Consider “GGTCAGCCTCGGCCTGACGC (sugars e5 d10 e5, PS)”, for which, in series [2] (HepG2, 0.12 µM), the target mRNA inhibition was determined as 11%. As to “TTTCCACTCTTCTGACAGGT (sugars e5 d10 e5, PS)”, the target mRNA inhibition is 77% and 69% in series [2] (HepG2, 2.5 µM); 93% and 92% in series [2] (HepG2, 10 µM).

Regarding “CACTGGAGCACTGAGATGAC (sugars e5 d10 e5, PS)”, the target mRNA inhibition in series [2] (HepG2, 0.12 µM) was 27% and 48%.
